Measurements: patent US7879814B2, “Methods and therapeutic compositions in the treatment of advanced cancer” (priority 2003, dated 2011)
Like-named read-outs stand apart in the source and are kept apart here.

Columns and labels:
[1] = cited from earlier work; for whole blood ATP concentration higher than pretreatment value (average): 24 hours of infusion
[2] = system: men with advanced, non-resectable cancer; conditions: cited from earlier work
[3] = Pharmacokinetics of ATP on weeks (cycles) 1, 3 and 8 of the Phase I study; assay type: in vivo, human
Text: Two of the seven evaluable patients had advanced prostate cancer with bone metastases and one each had advanced mesothelioma, metastatic breast cancer, metastatic melanoma, metastatic colon cancer and renal cell carcinoma.

[4] = system: patients with advanced malignancies (solid tumors); experiment: Phase I study of ATP by 8 hour intravenous infusion once weekly, out-patient (DMS #D0005): safety, tolerability, clinical efficacy; assay type: in vivo, human
Experimental: Adenosine 5′-triphosphate (ATP) is provided as a sterile solution in single use vials. […] Storage of the clinical solutions is at controlled refrigerated temperature (2-8° C.). […] The concentration of the final sterile solution is 8 mg/ml and is administered by continuous intravenous infusions using an Ivac or similar infusion device through venous access in a peripheral vein. If venous access is a problem, either a Hickman catheter or its equivalent or an Infusaport or its equivalent, are inserted to provide vascular access. […] All follow-up care is administered in hospital outpatient department or at the patient's home or clinic.
Title of the Study: “A Phase I Study of the Safety and Pharmacokinetics of Adenosine 5′-Triphosphate (ATP) When Administered by Intravenous Infusion on a Multiple Weekly Dose Schedule to Patients with Advanced Malignancies (Solid Tumors)”.
Nine qualified patients have been enrolled in the study as of Jan. 1, 2002; seven of which received the first 3 cycles of the study drug and are therefore evaluable for the primary endpoints. Two of the seven evaluable patients had advanced prostate cancer with bone metastases and one each had advanced mesothelioma, metastatic breast cancer, metastatic melanoma, metastatic colon cancer and renal cell carcinoma.

[5] = system: stage IIIB/IV non-small cell lung cancer patients; conditions: cited from earlier work
[6] = system: refractory stage IIIB/IV non-small cell lung cancer patients; conditions: cited from earlier work
[7] = 50, 75 or 100 mcg/kg/min, 96 hr infusion once every 4 weeks
[8] = week 1 pre-dose to week 13 follow-up
[9] = 50 or 65 mcg/kg/min, 96 hours once every 4 weeks, 15 patients
[10] = 50 or 65 mcg/kg/min, 96 hours once every 4 weeks
[11] = 30-hours infusions, 20 up to 75 mcg/kg/min

Structure (SMILES): Nc1ncnc2c1ncn2[C@@H]1O[C@H](COP(=O)(O)OP(=O)(O)OP(=O)(O)O)[C@@H](O)[C@H]1O [ATP, Adenosine 5′-triphosphate]
- whole blood ATP concentration higher than pretreatment value (average) ([1]; 50 mcg/kg/min): 63%
- whole blood ATP concentration higher than pretreatment value (average) ([1]; 75 mcg/kg/min): 67%
- whole blood ATP concentration higher than pretreatment value (average) ([1]; 100 mcg/kg/min): 113%
- course of blood ATP concentrations ([1]; interval between 24 and 96 hours of the infusion): relatively constant or slightly declined
- share of all adverse events that were grade 1 or 2 (mild or moderate) [2, 7]: 79%
- share of all adverse events that were grade 3 or 4 (severe or life-threatening) [2, 7]: 21%
- maximum tolerated dose ([2]; 96-hours infusions, patients with advanced cancers): 50 µg/kg/min
- events of grade 3 anxiety ([2]; 96 hr infusions): one
- events of grade 3 headache ([2]; 96 hr infusions): 1 event
- grade 3 or 4 events of chest pain ([2]; 96 hr infusions): 5 events
- grade 3 or 4 events of dizziness ([2]; 96 hr infusions): 1 event
- grade 3 or 4 events of dyspnea ([2]; 96 hr infusions): 6 events
- grade 3 or 4 events of hypotension ([2]; 96 hr infusions): 1 event
- grade 3 or 4 events of hypoxia ([2]; 96 hr infusions): 2 events
- grade 3 or 4 events of nausia/emesis ([2]; 96 hr infusions): 2 events
- total blood ATP pools after infusion ([3]; at 24 hours): decline to baseline (time 0)
- average increases in Initial ATP Release Rates (from Red Blood Cells) ([3]; time 0 to 8 hours): 200-400%
- increases in total blood ATP pools (red blood cell pools) ([3]; time 0 to 8 hours (end of the infusions)): 70-90%
- grade 2 cardiac ischemia or grades 3 or 4 toxicity ([4]; 8 hour iv infusion once weekly, up to 100 mcg/kg/min): No grade 2 cardiac ischemia or grades 3 or 4 toxicity have been observed
- appetite loss ([4]; all patients, screening to week 10 (follow-up), return to screening baseline at week 13): Decreases
- SGOT, SGPT and serum LDH ([4]; all patients, week 1 (pre-dose) to week 13 (follow-up)): Consistent decreases
- maximum allowable dose tolerated ([4]; continuous 8 hours iv infusion once weekly for eight weeks, seven of nine patients (the seven evaluable)): 100 µg/kg/min
- appetite and energy (subjective patient comments) ([4]; during the study, several patients): improved appetite and energy
- tolerability in terminal patients ([4]; patient 506): well tolerated
- Global Health Status of the QOL EORTC QLQ-C30 ([4]; screening (week <1) to follow-up (week 10), decline at week 13 follow-up): Increases
- Skeletal Muscle Strength (voluntary) ([4]; screening (week <1) to week 8 (last infusion cycle)): Small increases
- Kamofsky Performance Status [4, 8]: Small increases
- body weight [4, 8]: Stabilization
- patients reporting severe (grade 3) adverse effects [5, 9]: Six
- patients with life-threatening (grade 4) dyspnea [5, 9]: two
- disease status after treatment [5, 10]: the majority of patients exhibited stable disease
- hematologic, renal, hepatic, or gastrointestinal toxicity [5, 10]: No significant
- tumor shrinking [5, 10]: no significant tumor shrinking was observed
- effects on weight gain, performance status and overall survival ([5]; non-small cell lung cancer patients): beneficial effects
- adverse events of grade 1 (mild) [6, 11]: 81
- adverse events of grade 2 (moderate) [6, 11]: 5
- adverse events of grade 3 (severe) [6, 11]: none
- adverse events of grade 4 (life threatening) [6, 11]: 5
- electrocardiograms in patients with chest discomfort ([6]; 30-hours infusions): did not exhibit changes suggestive of myocardial ischemia
- effects on body weight, voluntary muscle strength and Quality of Life domains ([6]; ATP plus best supportive care vs best supportive care only): beneficial effects
- resolution of side effects ([6]; after lowering the rate of ATP infusion): resolved within minutes
